Results as given in patent US6529835B1, “High throughput methods, systems and apparatus for performing cell based screening assays” (Caliper Technologies Corp., priority 1998, dated 2003).

Columns and labels:
[1] = system: CHO cells; assay: Dual label cell function assay, intracellular calcium in CHO cells (Fluo-3 / Syto-17, on-chip); assay type: cell-based; settings: ionomycin 0, 1 μM, 3 μM, 10 μM and 30 μM, FIGS. 11A-11F
Procedure: (§1) Cell Culture—Cells (CHO or THP-1) were obtained from the ATCC. THP-1 cells were cultured in RPMI 1640 media containing 10% fetal bovine serum (FBS), sodium pyruvate (1 mM), L-glutamine (2 mM), Penicillin-G/Streptomycin (100 u/ml, 100 μ/ml), beta-mercaptoethanol (50 μM), HEPES buffer, pH 7.4 (10 mM). CHO cells were cultured in Ham's F12 media containing 10% FBS, L-glutamine (2 mM), and Penicillin-G/Streptomycin (100 u/ml/100 μg/ml). The cells were maintained by splitting every 3-4 days.
(§2) Dye Loading of Cells—The cells were loaded with Fluo-3-AM dye (Molecular Probes) using a 4 μM solution of the dye in Hank's Balanced Salt Solution (HBSS) containing calcium and magnesium but lacking phenol red. Added to the HBSS were 1% FBS, 2.5 mM probenecid, 30 mM HEPES, pH 7.0, and 0.05% pluronic acid. The cells were incubated in the dye containing solution at approximately, 5-9×10^6 cells/5 ml for 50 minutes in a CO2 incubator at 37° C. […]
(§3) The fluorescence of the cells was measured using two PMT's on a Nikon inverted microscope and fluorescein/texas red filter sets (Fluo-3: Ex. max=506, Em. max=526 & Syto-17: Ex. max=621, Em. max=634 nm) for two color analysis. Using the combination of Fluo-3 and Syto-17 dyes, there was no interference by fluorescence quenching of one dye's emission by the other dye. […] Syto-17 was therefore an indicator of cell density in the reading area. […]

[2] = system: P2Y receptor on THP-1 cells; assay: Dual label cell function assay, calcium response of THP-1 cells to UTP (Fluo-3 / Syto-17, on-chip); assay type: cell-based
Procedure: as §1, §2, §3

Row | SMILES | slope of the best fit line for the scatter plots (ratio of calcium modulated fluorescence to cell number; measure of intracellular calcium concentration) [1] | time to peak of calcium response after sample introduction ([2]; 10 μM UTP, FIG. 15) | ratio of the Fluo-3 and Syto-17 fluorescence (the slope determined by linear regression) ([2]; 30 μM UTP versus no UTP, FIG. 13)
1 | C[C@H](CCC(=O)O)C[C@H](C)C[C@H](C)C(=O)/C=C(\O)[C@H](C)C[C@H](C)C/C=C/[C@@H](C)[C@@H](O)[C@@H](C)[C@@H](O)C[C@@H]1CC[C@@](C)([C@H]2CC[C@@](C)([C@@H](C)O)O2)O1 [ionomycin] | increases with increasing ionomycin concentration |  | 
2 | O=c1ccn([C@@H]2O[C@H](COP(=O)(O)OP(=O)(O)OP(=O)(O)O)[C@@H](O)[C@H]2O)c(=O)[nH]1 [UTP] |  | ≤ 5 s | changes with treatment with UTP
